Consider 77 compounds from the supplement of paper PMC6723410.

The first test relates to GUMC-403. The experiment in a line: viability at highest tested concentration (max response) relative to DMSO (% of DMSO control); higher = less cytotoxic. The note with it: library / dose series: MIPE library, 11-point 1:3 dilution; top concentration 23 µM; 48 h. An outline of the steps:
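GUMC-403 papilloma cells, derived from a patient and expanded by conditional reprogramming, were dispensed at 700/well into 1536-well plates in 5 μL F + Y medium. A pin tool delivered 23 nL of each compound across an 11-point 1:3 dilution series for 48 h. CellTiter-Glo luminescence, read on a ViewLux, was normalised so that vehicle wells equalled 100% and empty wells 0%. Values report viability at the highest tested concentration relative to vehicle control.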
Consider `O=P(O)(O)C(O)(Cn1ccnc1)P(=O)(O)O`, for which the viability is 122.

Still in this test, the particulars now being: library / dose series: MIPE library, 11-point 1:3 dilution; top concentration 46.1 µM; 48 h.
Consider `O=C(Nc1nnc(-c2ccco2)o1)c1cc(-c2ccccc2)nc2ccccc12`, for which the viability turned out to be 89.1.
Consider `COC1=NC(=NC(=C1N\C2=N\CCN2)Cl)C`, for which the viability was 95.8.
Turning to `CN(C)Cc1cccc(N/C(=C2\C(=O)Nc3cc(C(=O)N(C)C)ccc32)c2ccccc2)c1`, the viability stood at 95.1.
`COC(=O)N1CCN(Cc2cccc(NC(=O)Nc3ccc(C)nc3)c2F)CC1` had a viability of 105.
`CC(C)[C@H](CO)Nc1nc(Nc2cccc(Cl)c2)c2ncn(C(C)C)c2n1` came in with a viability of 21.1.
In turn, `NC(=O)c1ccc(-c2nc(-c3ccc4c(c3)OCO4)c(-c3ccccn3)[nH]2)cc1` had a viability of 126.
Turning to `Cc1ccc(C(=O)c2cc(O)c(O)c([N+](=O)[O-])c2)cc1`, the viability amounted to 102.
`O=C(C1CC1)N1CC[C@@H](Cn2c(-c3ccc(-c4ccc5occc5c4)cc3)nc3cnccc32)C1` displayed a viability of 124.
The same measure, in the same setting: under `S=C1N\C=N/C2=C1[NH]C=N2` stands 103; under `Cc1cccc2c1CC[C@H](CN1CCC(c3c(Cl)cccc3Cl)CC1)C[C@@H]2O`, 89; under `O=C(Oc1ccc([N+](=O)[O-])cc1)N1CCC(C(O)(c2ccc3c(c2)OCO3)c2ccc3c(c2)OCO3)CC1`, 105.
`FC(F)(F)C1=CC=C2C(SCCCCCO\C3=C\O\C(CN4CCOCC4)=C/C3=O)=CC=NC2=C1` yielded a viability of 110.
Compound `CC(C)C[C@H](NC(=O)c1cc2ccccc2s1)C(=O)N1CCN(C(=O)[C@H](CO)N[S+](=O)([O-])c2ccc(Cl)cc2Cl)CC1` yielded a viability of 109.
As for `O=C(c1ccc(C(=O)N2CCC(N3CCCC3)CC2)c(Nc2ccccc2)c1)N1CCC(N2CCCC2)CC1`, the viability amounted to 109.
Same read-out and setting: under `C[C@@H]1CN(Cc2ccc(F)cc2)[C@@H](C)CN1C(=O)c1cc2c(C(=O)C(=O)N(C)C)cn(C)c2cc1Cl` stands 101; under `N[C@@H](Cc1ccc(N(CCCl)CCCl)cc1)C(=O)O`, 143; under `NC[C@H]1O[C@H](O[C@@H]2[C@H](O)[C@@H](O[C@H]3O[C@H](CO)[C@@H](O)[C@H](N)[C@H]3O)[C@H](N)C[C@@H]2N)[C@H](O)[C@@H](O)[C@@H]1O`, 103.
On the same count and under the same terms, the same measure for `Nc1ccc([S+](=O)([O-])Nc2ccnn2-c2ccccc2)cc1`: 133; for `Cc1onc(-c2ccccc2Cl)c1C(=O)N[C@@H]1C(=O)N2[C@@H]1SC(C)(C)[C@@H]2C(=O)[O-]`: 111.
`CC(C)(S)[C@@H](N)C(=O)O` gave a viability of 128.
Turning to `CC/C(=C(/CC)c1ccc(O)cc1)c1ccc(O)cc1`, the viability is 84.8.
With `CC1=CC=CC=C1N2\C(=N/C3=C(C(=CC=C3)C)C2=O)C[N]4C=NC5=C4N=CN=C5N`, the viability was 24.1.
On the same count and under the same terms, under `CCOc1cc2c(c(F)c1OCC)C(=N)N(CC(=O)c1cc(N3CCOCC3)c(OC)c(C(C)(C)C)c1)C2` stands 124.
`CNC(=O)C1=CC=C(C)C(=C1)N2C(=C/C(=C(/Br)C2=O)OCC3=C(F)C=C(F)C=C3)\C` yielded a viability of 109.
For the compound `CN[C@@H](C)C(=O)N[C@H]1CN(C(=O)CC(C)C)CC[C@H]2CC[C@@H](C(=O)NC(c3ccccc3)c3ccccc3)N2C1=O`, the viability is 73.1.
Compound `O=P1(NCCCl)OCCCN1CCCl` (configuration not stated) displayed a viability of 107.
Same read-out and setting: under `O=C1\C=C(OC2=C(C=CC=C12)C3=CC=CC4=C3SC5=C4C=CC=C5)\N6CCOCC6` stands 70.9.
The compound `CN1CCN(c2ncc(-c3cc(Cl)cc(Cl)c3Cl)c(N)n2)CC1` displayed a viability of 119.
The same measure, in the same setting: under `OC1CCC(Nc2ncc3nc(Nc4c(F)cc(F)cc4F)n([C@@H]4CCOC4)c3n2)CC1` (some centres not stated) stands 95.5.
On the same count and under the same terms, the same measure for `O=c1oc2cc(O)ccc2s1`: 102; for `Cc1cn[nH]c1`: 126; for `CCN(CCO)CCCOc1ccc2c(Nc3cc(CC(=O)Nc4cccc(F)c4)[nH]n3)ncnc2c1`: 105.
The same measure, in the same setting: the same measure for `COc1cc(F)c(C(C)C)cc1-c1ccc(C(F)(F)F)cc1CN1C(=O)O[C@H](c2cc(C(F)(F)F)cc(C(F)(F)F)c2)[C@@H]1C`: 100; for `ClC1=CC=C(CCCOC/2=N/NC(=O)C(=C2NCC3=CN=CC=C3)/Br)C=C1`: 83.2.
Take `N[S+]([O-])(=O)C1=C(Cl)C=C2\N=C/N[S+]([O-])(=O)C2=C1`: the viability was found to be 127.
Same read-out and setting: under `C[C@H]1COC2=C3N1\C=C(C(O)=O)/C(=O)C3=CC(=C2N4CCN(C)CC4)F` stands 105; under `CCN(CC)CCOc1ccc(Cc2ccccc2)cc1`, 101; under `O=C(O)CCNC(=O)c1ccc(/N=N/c2ccc(O)c(C(=O)O)c2)cc1`, 107.
In turn, `CN(C)CCc1c[nH]c2ccc(C[S+](=O)([O-])N3CCCC3)cc12` had a viability of 78.5.
The compound `CCN1CCN(C(=O)Cc2ccc(Nc3ncc(F)c(Nc4ccc(C(=O)Nc5ccccc5Cl)cc4)n3)cc2)CC1` yielded a viability of 55.5.
The same measure, in the same setting: the same measure for `COC1=CC=C(C=C1)C/2=C/OC3=CC(=CC=C3C2=O)O`: 95.7; for `CN1CCN2c3ncccc3Cc3ccccc3C2C1` (configuration not stated): 101; for `CC(=O)C1=C(O)C2(C)C(=CC1=O)Oc1c(C(C)=O)c(O)c(C)c(O)c12` (configuration not stated): 143.
Same read-out and setting: the same measure for `COC1=CC2=C(C=C1CC3=C(F)C(=CC=C3)Cl)C(=O)\C(=C/N2[C@H](CO)C(C)C)C(O)=O`: 124.
On the same count and under the same terms, under `C\C1=C\C(=O)C2=C(C=CC=C2)C1=O` stands 109; under `C=CC(=O)Nc1cccc(Oc2nc(Nc3ccc(N4CCN(C)CC4)cc3)ncc2Cl)c1`, 26.8; under `CN(C)C(=N)NC(=N)N`, 122.
As for `O=C(Nc1ccc(OC(F)(F)F)cc1)c1sccc1NCc1ccnc2ccccc12`, the viability worked out at 91.2.
`CN1\C(=C(\O)C2=CC=CC=C2[S+]1([O-])=O)C(=O)NC3=NC=C(C)S3` came in with a viability of 121.
Compound `N#C/C(=C\c1ccc(O)c(O)c1)C(=O)NCc1ccccc1` yielded a viability of 110.
On the same count and under the same terms, the same measure for `Cc1c(O)cccc1C(=O)N[C@@H](CSc1ccccc1)[C@H](O)CN1C[C@H]2CCCC[C@H]2C[C@H]1C(=O)NC(C)(C)C`: 126; for `O=C1NC(=O)/C(=C\c2ccc(-c3ccc(F)cc3)o2)S1`: 106; for `Cc1nc(C(=O)NCC(=O)O)c(O)c2ccc(Oc3ccccc3)cc12`: 132.
The same measure, in the same setting: the same measure for `Cc1c(C)c2c(c(C)c1O)CCC(C)(COc1ccc(CC3SC(=O)NC3=O)cc1)O2` (configuration not stated): 82; for `CN(C)/N=N/c1nc[nH]c1C(N)=O`: 123; for `CC(=O)O[C@@]1(CC[C@H]2[C@@H]3\C=C(Cl)/C4=C/C(=O)[C@@H]5C[C@@H]5[C@]4(C)[C@H]3CC[C@]12C)C(C)=O`: 76.4.
`Oc1cc(O)cc(/C=C/c2ccc(O)c(O)c2)c1` gave a viability of 91.7.
The compound `N[S+](=O)([O-])c1ccc(Nc2nc(OCC3CCCCC3)c3[nH]cnc3n2)cc1` displayed a viability of 46.9.
Compound `CNC(=O)[C@H](CC/1=C/N=C\2/C=C\C\C=C12)NC(=O)[C@H](CC(C)C)CC(=O)NO` gave a viability of 66.4.
Same read-out and setting: under `CO[C@H]1C[C@H]2OC[C@@]2(OC(C)=O)[C@H]3[C@H](OC(=O)C4=CC=CC=C4)[C@]5(O)C[C@H](OC(=O)[C@H](O)[C@@H](NC(=O)OC(C)(C)C)C6=CC=CC=C6)/C(=C(/[C@@H](OC)C(=O)[C@]13C)C5(C)C)C` stands 88.5; under `CN1CCC(=C2c3ccccc3CCc3sccc32)CC1`, 115.
Still for that read-out and setting: under `Nc1ccccc1NC(=O)c1ccc(CNC(=O)OCc2cccnc2)cc1` stands 110; under `COc1cc2nc(N3CCN(C(=O)C4COc5ccccc5O4)CC3)nc(N)c2cc1OC` (configuration not stated), 115.
On the same count and under the same terms, under `CC[C@H](CC#N)OC(=O)N[C@@H](C)c1cccc(NC(=O)Nc2ccc(-c3cnco3)c(OC)c2)c1` stands 124; under `O=C(CO)N1CCC(c2n[nH]c(-c3ccc(Cl)cc3)c2-c2ccncn2)CC1`, 109; under `CN(C)C[C@@H]1CC[N]2C=C(C3=C2C=CC=C3)C/4=C(/C(=O)NC4=O)C5=C[N](CCO1)C6=C5C=CC=C6`, 89.8.
`CC(=O)NC(C)c1ccc(Oc2ccc(OC(C)C)cc2)cc1` (configuration not stated): the viability is 121.
Regarding `NC(=O)Cc1cccc(C(=O)c2ccccc2)c1N`, the viability was 112.
With `O=P(O)(O)C(O)(Cc1cccnc1)P(=O)(O)[O][Na]` (configuration not stated), the viability was 123.
The same measure, in the same setting: the same measure for `CN1CCCC(CC1)N2\N=C(CC3=CC=C(Cl)C=C3)/C4=C(C=CC=C4)C2=O` (configuration not stated): 78.8.
Same read-out and setting: the same measure for `CC1(C)OC2CC3C4CC(F)C/5=C/C(=O)/C=C\C5(C)C4C(O)CC3(C)[C@@]2(O1)C(=O)CO` (some centres not stated): 148; for `CN1CCC[C@@H]1CCO[C@](C)(c1ccccc1)c1ccc(Cl)cc1`: 103.
On the same count and under the same terms, under `CC(C)Cn1cnc2c(N)nc3ccccc3c21` stands 116; under `OC(Cn1cncn1)(Cn1cncn1)c1ccc(F)cc1F`, 130; under `CCN1C[C@H](C)[N]2C(=C(O)C3=C2\C(=N/N(CC4=CC=C(F)C(=C4)Cl)C3=O)C(=O)NC)C1=O`, 123.
In turn, `C[C@]12Cc3cn[nH]c3C[C@@H]1CC[C@@H]1[C@@H]2CC[C@@]2(C)[C@H]1CC[C@]2(C)O` displayed a viability of 108.
